Assay [1] concerns Diabrotica balteata (Corn root worm). The assay can be described thus: Diabrotica balteata larvae test on artificial diet. The assay is classed as in vivo. Particulars: for pest or weed control at 200 ppm: 120 h, 200 ppm (concentration in well 18 ppm), artificial diet, L2 larvae, larval mortality and growth regulation after 5 days. The protocol:
(§1) This Example illustrates the insecticidal and acaricidal properties of compounds of formula (I). The tests were performed as follows:
(§2) Cotton leaf discs were placed on agar in a 24-well microtiter plate and sprayed with test solutions at an application rate of 200 ppm. After drying, the leaf discs were infested with 5 L1 larvae. The samples were checked for mortality, feeding behavior, and growth regulation 3 days after treatment (DAT). The following compound gave at least 80% control of Spodoptera littoralis: A1, A2, A5, A6, A7, A8, A10, A11, A12, A13, A14, A15, A16, A17, A18, A19, A21, A22, A23, A24, A25, A30, A31, A32, A33, A34, A35, A39, A40, A41 A42, A43, A44, A45, A46, A47, A48, A49, A50, A51, A53, A54, A55, A59, A60, A61, A62. Heliothis virescens (Tobacco budworm): Eggs (0-24 h old) were placed in 24-well microtiter plate on artificial diet and treated with test solutions at an application rate of 200 ppm (concentration in well 18 ppm) by pipetting. After an incubation period of 4 days, samples were checked for egg mortality, larval mortality, and growth regulation. The following compound gave at least 80% control of Heliothis virescens: A1, A2, A3, A4, A5, A6, A7, A8, A10, A11, A12, A13, A14, A15, A16, A18, A19, A21, A22, A24, A25, A30, A31, A32, A33, A34, A35, A37, A38, A39, A40, A42, A43, A44, A45, A46, A47, A48, A49, A50, A51, A55, AA57, A58, A59, A60, A61, A62. Plutella xylostella (Diamond back moth): 24-well microtiter plate (MTP) with artificial diet was treated with test solutions at an application rate of 200 ppm (concentration in well 18 ppm) by pipetting. After drying, the MTP's were infested with L2 larvae (7-12 per well). After an incubation period of 6 days, samples were checked for larval mortality and growth regulation. The following compound gave at least 80% control of Plutella xylostella: A1, A2, A5, A6, A7, A8, A9, A10, A11, A12, A13, A14, A15, A16, A17, A18, A19, A20, A21, A22, A24, A25, A30, A31, A32, A33, A34, A35, A37, A38, A39, A40, A42, A43, A44, A45, A46, A47, A48, A49, A50, A51, A52, A53, A54, A55, A57, A58, A59, A60, A61, A62, B3. Diabrotica balteata (Corn root worm): A 24-well microtiter plate (MTP) with artificial diet was treated with test solutions at an application rate of 200 ppm (concentration in well 18 ppm) by pipetting. After drying, the MTP's were infested with L2 larvae (6-10 per well). After an incubation period of 5 days, samples were checked for larval mortality and growth regulation. The following compound gave at least 80% control of Diabrotica balteata: A1, A2, A5, A6, A7, A10, A11, A12, A13, A14, A15, A16, A17, A18, A19, A21, A22, A24, A25, A30, A31, A32, A33, A34, A35, A38, A39, A40, A42, A43, A44, A45, A46, A47, A48, A49, A50, A59, A60, A61, A62. Thrips tabaci (Onion thrips): Sunflower leaf discs were placed on agar in a 24-well microtiter plate and sprayed with test solutions at an application rate of 200 ppm. After drying, the leaf discs were infested with an […] population of mixed ages. After an incubation period of 7 days, samples were checked for mortality. The following compounds gave at least 80% control of Thrips tabaci: A1, A2, A5, A6, A7, A8, A10, A12, A13, A14, A15, A16, A17, A18, A19, A21, A24, A25, A30, A31, A32, A33, A34, A35, A39, A42, A43, A44, A45, A46, A47, A48, A49, A50, A51, A53, A54, A57, A58, A59, A60, A61, A62. Tetranychus urticae (Two-spotted spider mite): Bean leaf discs on agar in 24-well microtiter plates were sprayed with test solutions at an application rate of 200 ppm. After drying, the leaf discs are infested with mite populations of mixed ages. 8 days later, discs are checked for egg mortality, larval mortality, and adult mortality. The following compound gave at least 80% control of Tetranychus urticae: A1, A2, A4, A5, A6, A7, A8, A10, A11, A12, A13, A14, A15, A16, A17, A18, A19, A20, A21, A22, A30, A31, A32, A33, A34, A35, A39, A40, A41, A42, A43, A44, A45, A46, A47, A48, A49, A50, A51, A53, A54, A55, A57, A59, A60, A61, A62.

Assay [2] deals with Plutella xylostella (Diamond back moth). Briefly: Plutella xylostella larvae test on artificial diet. Format: in vivo. Particulars: for pest or weed control at 200 ppm: 144 h, 200 ppm (concentration in well 18 ppm), artificial diet, L2 larvae, larval mortality and growth regulation after 6 days. On the procedure: as §1, §2

Where only a bound is given, the exact number is not on record here.

This note sets out measurements from patent US9216973B2, “Insecticidal compounds” (Syngenta Participations AG, priority 2008, dated 2015).

For `O=C(NC1C[S+]([O-])C1)c1ccc(C2=NOC(c3cc(Cl)cc(Cl)c3)(C(F)(F)F)C2Br)c2ccccc12` (centres unmarked) [A44], the pest or weed control at 200 ppm in assay [1] and in assay [2] was no less than 80% in each case.

As for `Cc1cc(C2=NCC(c3cc(Cl)cc(Cl)c3)(C(F)(F)F)C2)ccc1C(=O)NC1CS(=O)(=O)C1` (centres unmarked) [A46], the pest or weed control at 200 ppm in assay [1] and in assay [2] was no less than 80% each time.

Consider `Cc1cc(C2=NCC(c3cc(Cl)cc(Cl)c3)(C(F)(F)F)C2)ccc1C(=O)NC1(C)CSC1` (centres unmarked) [A47], for which the pest or weed control at 200 ppm in assay [1] and in assay [2] was no less than 80% throughout.

For `Cc1cc(C2=NCC(c3cc(Cl)cc(Cl)c3)(C(F)(F)F)C2)ccc1C(=O)NC1C[S+]([O-])C1` (centres unmarked) [A48], the pest or weed control at 200 ppm in assay [1] and in assay [2] was no less than 80% in each case.

Consider `Cc1cc(C2=NCC(c3cc(Cl)cc(Cl)c3)(C(F)(F)F)C2)ccc1C(=O)NC1CSC1` (centres unmarked) [A49], for which the pest or weed control at 200 ppm in assay [1] and in assay [2] was no less than 80% each time.

Turning to `Cc1cc(C2=NOC(c3cc(Cl)cc(Cl)c3)(C(F)(F)F)/C2=N/O)ccc1C(=O)NC1(C)CSC1` (centres unmarked) [A56], the “effect on mortality, feeding behavior, or growth regulation” value in assay [1] (same protocol, 200 ppm) is on record as “little or no effect”; in assay [2] (same protocol, 200 ppm) it was “little or no effect”.

As for `Cc1cc(C2=NOC(c3cc(Cl)cc(Cl)c3)(C(F)(F)F)C2F)ccc1C(=O)NC1CS(=O)(=O)C1` (centres unmarked) [A59], the pest or weed control at 200 ppm in assay [1] and in assay [2] was no less than 80% throughout.

As for `Cc1cc(C2=NOC(c3cc(Cl)cc(Cl)c3)(C(F)(F)F)C2F)ccc1C(=O)NC1(C)CSC1` (centres unmarked) [A60], the pest or weed control at 200 ppm in assay [1] and in assay [2] was no less than 80% each time.

For `Cc1cc(C2=NOC(c3cc(Cl)cc(Cl)c3)(C(F)(F)F)C2F)ccc1C(=O)NC1CSC1` (centres unmarked) [A61], the pest or weed control at 200 ppm in assay [1] and in assay [2] was no less than 80% throughout.

As to `Cc1cc(C2=NOC(c3cc(Cl)cc(Cl)c3)(C(F)(F)F)C2F)ccc1C(=O)NC1C[S+]([O-])C1` (centres unmarked) [A62], the pest or weed control at 200 ppm in assay [1] and in assay [2] was no less than 80% throughout.

What is called pest or weed control is how far the test organism was held down. Read a low pest or weed control as a weak effect.
